The results in this text go back to US9603835B2, “Use of 3-(R)-[3-(2-methoxyphenylthio)-2-(S)-methylpropyl]amino-3,4-dihydro-2H-1,5-benzoxathiepine for treating cancer and in particular for preventing and/or treating cancer metastases” (PIERRE FABRE MEDICAMENT, priority 2011, dated 2017).

Data set [1] in a line: In vivo effect on normal cardiac function. The following applies: even at high doses.
A further data set is described as follows: Cytotoxicity. The class given is cell-based.
Data set [2] has as its target T1, Nav1.5 voltage-gated sodium channels (Homo sapiens, UniProt Q14524).
T1 construct: said cells express, inter alia, functional Nav1.5 voltage-gated sodium channels; endogenous in cells; host or cells: MDA-MB-231
Briefly: Whole-cell patch-clamp, repeated depolarisation protocol, MDA-MB-231 cells. The class given is cell-based. An excerpt: Merely as an illustration, the inventors chose to use the MDA-MB-231 line, which is a highly metastatic human mammary adenocarcinoma line, in the experiment. […] However, the pharmacological tools in question are not suitable for precise characterisation of the nature of the Nav1.5 sodium current involved in the metastatic process. […] For this reason, the inventors consider that 3-(R)-[3-(2-methoxyphenylthio)-2-(S)-methyl-propyl]amino-3,4-dihydro-2H-1,5-benzoxathiepine has anti-metastatic properties in relation to cancer cells expressing the Nav1.5 channel. As such, it is important to note that numerous types of metastatic cancer have been reported as expressing the Nav1.5 channel.
Cell culture: the MDA-MB-231 cells are cultured in a Dulbecco's modified Eagle's medium, (Life Technologies LTD, Paisley, UK) supplemented with 4 mM L-glutamine and 10% foetal calf serum. The cells are inoculated in 100 mm culture dishes and placed in an incubator at 37° C., 100% moisture and 5% CO2.
Electrophysiological measurements in “whole cell” configuration: the patch pipette (resistance 5-15 MΩ) contains a solution of: 5 mM NaCl, 145 mM CsCl, 2 mM MgCl2, 1 mM CaCl2, 10 mM HEPES and 11 mM EGTA, the pH is adjusted to 7.4 with CsOH. The reference electrode is immersed in the extracellular medium consisting of a solution of: 140 mM NaCl, 4 mM KCl, 2 mM MgCl2, 11 mM glucose, 10 mM HEPES, the pH is adjusted to 7.4 with NaOH. These two electrodes are connected to an Axopatch 200B amplifier (Axon Instrument). The currents are filtered using a Bessel filter at a frequency of 5 kHz and are sampled at a frequency of 5 kHz using the Digidata interface (1200). The data acquisition and analysis are performed using pClamp software (Axon Instrument). The holding potential is set to −110 mV to record the maximum Nav channel activity.
Two protocols were used: • 1/ “Voltage-dependent current INa” protocol for observing the maximum amplitude of INa according to the voltage applied. Depolarisations in 5 mV stages are performed at a frequency of 0.2 Hz, from −110 to +60 mV. […]
For orientation: In patch-clamp work, channel activity is measured electrically.

Structures are written as SMILES.

By IC50 is commonly meant the concentration that gives 50% inhibition.

T1 sequence (Q14524 1-2016 isoform Q14524-4): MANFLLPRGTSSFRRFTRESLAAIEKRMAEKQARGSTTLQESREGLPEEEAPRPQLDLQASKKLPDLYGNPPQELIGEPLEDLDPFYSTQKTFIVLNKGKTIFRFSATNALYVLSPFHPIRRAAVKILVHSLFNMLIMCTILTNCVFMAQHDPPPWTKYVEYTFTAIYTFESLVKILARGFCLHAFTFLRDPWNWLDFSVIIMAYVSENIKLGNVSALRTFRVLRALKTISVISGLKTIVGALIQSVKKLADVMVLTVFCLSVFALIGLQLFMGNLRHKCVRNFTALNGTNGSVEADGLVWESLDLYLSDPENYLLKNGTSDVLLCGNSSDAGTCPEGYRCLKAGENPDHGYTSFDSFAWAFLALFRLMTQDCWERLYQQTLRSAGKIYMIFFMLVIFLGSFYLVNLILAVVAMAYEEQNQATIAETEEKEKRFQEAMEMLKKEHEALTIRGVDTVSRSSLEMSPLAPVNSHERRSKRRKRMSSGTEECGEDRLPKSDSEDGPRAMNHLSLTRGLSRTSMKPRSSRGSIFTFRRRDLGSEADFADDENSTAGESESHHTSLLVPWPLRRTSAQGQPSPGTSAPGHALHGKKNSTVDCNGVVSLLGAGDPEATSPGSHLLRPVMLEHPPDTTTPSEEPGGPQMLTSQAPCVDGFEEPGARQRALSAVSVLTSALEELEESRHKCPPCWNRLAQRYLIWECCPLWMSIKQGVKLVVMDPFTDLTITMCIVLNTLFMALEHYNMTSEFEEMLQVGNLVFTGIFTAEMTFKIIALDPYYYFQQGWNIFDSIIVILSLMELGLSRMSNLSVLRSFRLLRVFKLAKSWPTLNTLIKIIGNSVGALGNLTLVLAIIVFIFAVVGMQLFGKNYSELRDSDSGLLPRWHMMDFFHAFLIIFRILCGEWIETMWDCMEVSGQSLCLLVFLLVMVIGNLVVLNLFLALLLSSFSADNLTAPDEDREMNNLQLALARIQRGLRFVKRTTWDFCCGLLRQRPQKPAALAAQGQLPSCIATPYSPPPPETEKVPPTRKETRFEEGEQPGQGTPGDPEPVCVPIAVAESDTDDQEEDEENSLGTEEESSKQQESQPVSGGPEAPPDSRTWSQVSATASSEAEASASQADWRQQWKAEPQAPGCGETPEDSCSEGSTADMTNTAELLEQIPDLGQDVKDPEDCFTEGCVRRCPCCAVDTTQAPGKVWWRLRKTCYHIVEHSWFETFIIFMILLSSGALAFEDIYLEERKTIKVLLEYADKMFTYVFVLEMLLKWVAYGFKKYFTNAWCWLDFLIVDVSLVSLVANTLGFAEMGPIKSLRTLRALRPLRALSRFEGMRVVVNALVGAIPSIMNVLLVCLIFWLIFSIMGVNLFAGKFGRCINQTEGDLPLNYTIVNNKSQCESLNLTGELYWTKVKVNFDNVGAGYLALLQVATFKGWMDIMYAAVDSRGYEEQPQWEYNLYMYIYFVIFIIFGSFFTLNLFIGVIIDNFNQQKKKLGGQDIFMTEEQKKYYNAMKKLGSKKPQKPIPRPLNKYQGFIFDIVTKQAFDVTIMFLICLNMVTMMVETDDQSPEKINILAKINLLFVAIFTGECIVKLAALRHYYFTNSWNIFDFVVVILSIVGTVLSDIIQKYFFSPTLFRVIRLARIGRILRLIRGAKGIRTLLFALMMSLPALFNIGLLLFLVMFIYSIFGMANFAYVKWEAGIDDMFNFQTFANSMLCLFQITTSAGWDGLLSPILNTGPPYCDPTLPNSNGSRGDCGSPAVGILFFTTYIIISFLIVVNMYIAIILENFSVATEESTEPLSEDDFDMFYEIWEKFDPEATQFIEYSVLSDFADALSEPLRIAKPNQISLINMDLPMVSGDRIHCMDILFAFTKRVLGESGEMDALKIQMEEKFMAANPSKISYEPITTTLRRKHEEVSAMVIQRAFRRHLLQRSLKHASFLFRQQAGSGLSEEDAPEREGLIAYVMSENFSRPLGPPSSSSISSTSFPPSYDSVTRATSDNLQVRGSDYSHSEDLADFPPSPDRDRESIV

Regarding `COc1ccccc1SC[C@@H](C)CN[C@@H]1COc2ccccc2SC1` [3-(R)-[3-(2-methoxyphenylthio)-2-(S)-methyl-propyl]amino-3,4-dihydro-2H-1,5-benzoxathiepine], the “interference with normal cardiac function” value in data set [1] is listed as “does not interfere with normal cardiac function”. Further, in the data set “Cytotoxicity”, the cytotoxicity result is “not cytotoxic”. Besides, the IC50 in data set [2] (MDA-MB-231 cells, whole cell patch-clamp, concentration-dependent, read-out: reduction of the metastatic Nav1.5 current (IC50)) amounted to 1.5 µM.

Regarding `NC1=N[C@H](O)[C@H]2[C@H]3O[C@]4(O)O[C@@H]([C@@H](O)[C@@]2(N1)[C@@H]4O)[C@]3(O)CO` [tetrodotoxin], the peak current inhibition in data set [2] (1 µM) is reported as 30±7%; in data set [2] (5 µM), 54±8%.
